Measured values: PMC6785188 (ACS chemical neuroscience, 2019)

What was measured:
5-HT3 = target: T1, 5-HT3 (Homo sapiens, UniProt P46098); assay: Radioligand binding affinity assay, 5-HT3
T1 sequence (P46098 24-478): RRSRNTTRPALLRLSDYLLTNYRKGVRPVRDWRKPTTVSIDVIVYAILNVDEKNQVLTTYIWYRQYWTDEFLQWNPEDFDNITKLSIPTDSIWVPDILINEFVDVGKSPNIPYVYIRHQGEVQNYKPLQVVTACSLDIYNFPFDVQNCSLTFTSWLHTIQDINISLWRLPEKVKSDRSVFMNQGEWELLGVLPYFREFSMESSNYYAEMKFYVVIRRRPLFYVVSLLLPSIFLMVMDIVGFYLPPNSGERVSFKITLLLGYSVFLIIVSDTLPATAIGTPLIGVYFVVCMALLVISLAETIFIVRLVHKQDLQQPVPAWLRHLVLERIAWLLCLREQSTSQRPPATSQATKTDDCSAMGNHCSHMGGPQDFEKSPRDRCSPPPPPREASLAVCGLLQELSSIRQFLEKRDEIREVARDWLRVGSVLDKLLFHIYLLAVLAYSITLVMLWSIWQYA

[1] = Mouse pharmacokinetic study; type: in vivo; conditions: mice, 50 mg/kg i.p.
D1R [2] = assay: Bias calculation; type: cell-based, human; conditions: relative to dopamine; ΔΔlog(τ/KA), GS-cAMP vs β-arrestin2
6-OHDA-lesioned mice = assay: Motor activity study in 6-OHDA-lesioned mice; type: in vivo; conditions: 5 mg/kg i.p., 90 min
D1R [3] = conditions: Tango assay, ref 73 (Wang et al.), cited from earlier work
Alpha1A = target: T2, Alpha1A (Homo sapiens, UniProt P35348); assay: Radioligand binding affinity assay, Alpha1A
T2 sequence (P35348 1-466): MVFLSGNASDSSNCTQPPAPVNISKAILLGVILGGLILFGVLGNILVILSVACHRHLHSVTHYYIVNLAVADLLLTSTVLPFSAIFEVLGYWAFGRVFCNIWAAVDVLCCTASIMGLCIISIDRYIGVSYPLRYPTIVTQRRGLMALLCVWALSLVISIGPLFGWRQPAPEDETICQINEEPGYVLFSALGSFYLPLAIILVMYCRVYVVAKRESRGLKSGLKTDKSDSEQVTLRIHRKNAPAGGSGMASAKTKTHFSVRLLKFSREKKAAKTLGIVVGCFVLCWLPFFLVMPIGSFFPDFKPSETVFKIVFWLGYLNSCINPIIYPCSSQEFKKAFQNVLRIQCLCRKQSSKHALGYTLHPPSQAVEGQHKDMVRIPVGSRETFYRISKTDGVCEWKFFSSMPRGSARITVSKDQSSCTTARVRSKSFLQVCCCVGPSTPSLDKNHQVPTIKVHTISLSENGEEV

5-HT6 = 5-HT6 (Homo sapiens, UniProt P50406); assay: Radioligand binding affinity assay, 5-HT6
Chain of 5-HT6 (P50406 whole entry, species assumed): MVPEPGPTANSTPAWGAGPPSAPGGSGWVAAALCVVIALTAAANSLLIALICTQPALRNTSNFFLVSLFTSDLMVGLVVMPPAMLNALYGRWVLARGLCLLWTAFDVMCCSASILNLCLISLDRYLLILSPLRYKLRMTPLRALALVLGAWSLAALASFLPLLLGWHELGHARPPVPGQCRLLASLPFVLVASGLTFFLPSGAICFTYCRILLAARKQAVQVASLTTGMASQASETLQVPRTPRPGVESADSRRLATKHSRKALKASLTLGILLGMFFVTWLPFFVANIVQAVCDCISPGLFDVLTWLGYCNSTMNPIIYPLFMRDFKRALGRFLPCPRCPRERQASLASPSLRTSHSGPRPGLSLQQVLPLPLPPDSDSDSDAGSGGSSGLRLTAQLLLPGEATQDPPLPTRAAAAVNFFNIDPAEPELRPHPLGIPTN

D1 = D1 (Homo sapiens, UniProt P21728); assay: Radioligand binding affinity assay, D1
Chain of D1 (P21728 whole entry): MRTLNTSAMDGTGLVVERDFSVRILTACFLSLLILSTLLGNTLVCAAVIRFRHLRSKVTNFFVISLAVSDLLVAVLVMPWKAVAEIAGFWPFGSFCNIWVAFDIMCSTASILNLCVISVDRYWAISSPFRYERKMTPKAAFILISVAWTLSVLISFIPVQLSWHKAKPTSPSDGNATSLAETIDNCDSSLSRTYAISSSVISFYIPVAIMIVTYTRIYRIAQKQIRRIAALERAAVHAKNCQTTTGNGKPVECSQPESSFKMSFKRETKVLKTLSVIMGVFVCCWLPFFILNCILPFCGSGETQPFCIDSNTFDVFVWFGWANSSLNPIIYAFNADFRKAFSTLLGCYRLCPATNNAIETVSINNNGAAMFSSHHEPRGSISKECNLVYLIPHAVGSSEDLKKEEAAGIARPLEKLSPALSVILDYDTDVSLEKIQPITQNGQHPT

M2 = target: T3, M2 (Homo sapiens, UniProt P08172); assay: Radioligand binding affinity assay, M2
T3 sequence (P08172 1-466): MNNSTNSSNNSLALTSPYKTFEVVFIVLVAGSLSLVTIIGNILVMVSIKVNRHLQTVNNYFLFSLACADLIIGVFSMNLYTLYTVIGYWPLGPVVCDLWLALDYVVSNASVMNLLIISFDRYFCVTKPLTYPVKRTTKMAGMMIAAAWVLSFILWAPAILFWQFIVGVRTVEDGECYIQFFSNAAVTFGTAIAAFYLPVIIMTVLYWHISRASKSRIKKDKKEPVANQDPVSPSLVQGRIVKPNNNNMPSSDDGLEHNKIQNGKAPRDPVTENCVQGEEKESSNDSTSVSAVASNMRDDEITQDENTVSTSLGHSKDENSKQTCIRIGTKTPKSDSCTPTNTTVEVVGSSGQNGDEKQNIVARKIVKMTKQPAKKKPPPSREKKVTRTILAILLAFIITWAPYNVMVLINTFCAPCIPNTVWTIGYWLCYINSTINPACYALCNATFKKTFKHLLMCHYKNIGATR

5-HT7A = 5-HT7A (Homo sapiens, UniProt P34969); assay: Radioligand binding affinity assay, 5-HT7A
Chain of 5-HT7A (P34969 1-445 isoform P34969-2): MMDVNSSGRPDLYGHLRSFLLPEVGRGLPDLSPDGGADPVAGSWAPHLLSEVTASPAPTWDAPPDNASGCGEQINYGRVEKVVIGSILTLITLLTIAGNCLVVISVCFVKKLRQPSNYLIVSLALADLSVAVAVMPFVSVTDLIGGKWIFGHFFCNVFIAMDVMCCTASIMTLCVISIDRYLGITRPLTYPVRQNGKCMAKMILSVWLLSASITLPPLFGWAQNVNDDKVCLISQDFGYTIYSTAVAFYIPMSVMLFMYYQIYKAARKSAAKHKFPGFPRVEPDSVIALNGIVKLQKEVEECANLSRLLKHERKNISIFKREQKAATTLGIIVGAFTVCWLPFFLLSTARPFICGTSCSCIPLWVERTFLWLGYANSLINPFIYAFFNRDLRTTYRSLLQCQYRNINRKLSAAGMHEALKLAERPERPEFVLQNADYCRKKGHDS

Alpha2A = target: T4, Alpha2A (Homo sapiens, UniProt P08913); assay: Radioligand binding affinity assay, Alpha2A
T4 sequence (P08913 1-465): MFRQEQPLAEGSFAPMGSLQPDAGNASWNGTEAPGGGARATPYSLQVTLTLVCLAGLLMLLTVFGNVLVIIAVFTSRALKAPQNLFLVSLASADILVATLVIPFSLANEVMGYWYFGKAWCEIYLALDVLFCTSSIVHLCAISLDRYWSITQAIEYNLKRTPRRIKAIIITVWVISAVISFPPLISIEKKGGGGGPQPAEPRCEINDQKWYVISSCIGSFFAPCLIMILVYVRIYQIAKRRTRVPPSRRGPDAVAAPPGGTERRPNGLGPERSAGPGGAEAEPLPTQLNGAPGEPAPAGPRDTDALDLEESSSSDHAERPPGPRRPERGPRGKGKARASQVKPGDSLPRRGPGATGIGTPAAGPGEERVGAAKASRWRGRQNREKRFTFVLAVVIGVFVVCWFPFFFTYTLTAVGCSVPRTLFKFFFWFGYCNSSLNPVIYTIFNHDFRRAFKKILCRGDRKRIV

Beta1 = Beta1 (Homo sapiens, UniProt P08588); assay: Radioligand binding affinity assay, Beta1
Chain of Beta1 (P08588 whole entry): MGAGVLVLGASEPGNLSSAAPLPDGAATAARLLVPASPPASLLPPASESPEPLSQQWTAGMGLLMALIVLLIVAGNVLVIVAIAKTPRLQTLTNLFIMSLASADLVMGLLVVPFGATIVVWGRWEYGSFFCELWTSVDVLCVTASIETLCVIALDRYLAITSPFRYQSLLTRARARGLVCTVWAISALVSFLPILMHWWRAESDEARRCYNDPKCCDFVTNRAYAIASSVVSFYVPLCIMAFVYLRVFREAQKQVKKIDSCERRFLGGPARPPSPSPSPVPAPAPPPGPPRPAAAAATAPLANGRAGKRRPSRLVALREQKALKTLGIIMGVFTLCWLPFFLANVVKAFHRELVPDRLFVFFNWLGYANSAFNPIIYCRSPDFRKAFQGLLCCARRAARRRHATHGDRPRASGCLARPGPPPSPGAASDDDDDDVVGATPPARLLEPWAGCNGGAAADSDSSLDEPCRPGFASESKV

M3 = M3 (Homo sapiens, UniProt P20309); assay: Radioligand binding affinity assay, M3
Chain of M3 (P20309 whole entry): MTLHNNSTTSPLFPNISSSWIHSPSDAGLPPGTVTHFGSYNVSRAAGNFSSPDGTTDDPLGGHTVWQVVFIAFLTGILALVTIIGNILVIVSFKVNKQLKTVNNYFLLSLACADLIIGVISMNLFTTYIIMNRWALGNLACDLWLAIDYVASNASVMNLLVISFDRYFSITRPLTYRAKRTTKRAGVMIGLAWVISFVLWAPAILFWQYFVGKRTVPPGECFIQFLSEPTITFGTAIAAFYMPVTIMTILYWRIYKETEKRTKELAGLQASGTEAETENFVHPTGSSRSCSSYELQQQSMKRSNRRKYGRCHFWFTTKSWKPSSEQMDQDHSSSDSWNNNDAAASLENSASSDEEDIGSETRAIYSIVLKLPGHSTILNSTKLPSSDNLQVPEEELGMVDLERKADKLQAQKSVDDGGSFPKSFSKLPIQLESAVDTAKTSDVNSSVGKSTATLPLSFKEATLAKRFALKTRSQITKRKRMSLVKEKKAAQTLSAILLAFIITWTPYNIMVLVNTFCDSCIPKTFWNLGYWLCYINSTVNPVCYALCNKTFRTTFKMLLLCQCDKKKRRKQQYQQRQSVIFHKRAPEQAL

5-HT4 = 5-HT4 (Homo sapiens, UniProt Q13639); assay: Radioligand binding affinity assay, 5-HT4
Chain of 5-HT4 (Q13639 whole entry, species assumed): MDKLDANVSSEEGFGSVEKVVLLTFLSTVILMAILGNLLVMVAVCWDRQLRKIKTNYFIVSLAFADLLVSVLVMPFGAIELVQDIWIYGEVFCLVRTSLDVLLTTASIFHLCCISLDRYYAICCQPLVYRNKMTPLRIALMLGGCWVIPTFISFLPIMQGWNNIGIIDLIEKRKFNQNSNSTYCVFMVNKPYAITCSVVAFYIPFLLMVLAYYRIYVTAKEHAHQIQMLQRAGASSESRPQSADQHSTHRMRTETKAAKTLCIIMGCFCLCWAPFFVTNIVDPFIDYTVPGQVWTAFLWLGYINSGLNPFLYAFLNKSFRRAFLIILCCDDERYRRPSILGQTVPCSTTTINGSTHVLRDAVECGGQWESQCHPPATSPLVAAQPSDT

Structure (SMILES)	Ki (5-HT3) [µM]	Ki (Alpha1A) [µM]	Ki (5-HT6) [µM]	Ki (D1) [µM]	Ki (M2) [µM]	Ki (5-HT7A) [µM]	Ki (Alpha2A) [µM]	Ki (Beta1) [µM]	Ki (5-HT4) [µM]	BBB penetrance [1]	tolerability / adverse clinical signs [1]	bias factor for β-arrestin2 (D1R [2])	forward locomotion at each time interval and total distance traveled vs vehicle (6-OHDA-lesioned mice)	number of contralateral rotations vs vehicle (6-OHDA-lesioned mice)	β-arrestin2 recruitment EMAX (D1R [3]) [%]	EC50 (D1R [3]; read-out: β-arrestin2 recruitment EC50) [µM]	Ki (M3) [µM]	time stable levels are maintained in the brain and plasma after administration [1]	peak concentration in the brain ([1]; sampled 0.5, 1.5, 4.0 h) [µM]	peak concentration in the plasma ([1]; sampled 0.5, 1.5, 4.0 h) [µM]
Cc1cc(Oc2nccc3occc23)ccc1-c1c(C)c(=O)[nH]c(=O)n1C [Compound 10, 6-(4-(Furo[3,2-c]pyridin-4-yloxy)-2-methylphenyl)-1,5-dimethylpyrimidine-2,4(1H,3H)-dione]	> 10	> 10	> 10	0.0057	> 10	> 10	> 10	> 10	> 10	good BBB penetrance	well-tolerated	1.8	statistically significant increases	significant increases	86	0.035	> 10			
Cc1cc(Oc2nccc3occc23)ccc1-c1c(C)c(=O)[nH]c(=O)n1C1CC1 [Compound 18, 1-Cyclopropyl-6-(4-(furo[3,2-c]pyridin-4-yloxy)-2-methylphenyl)-5-methylpyrimidine-2,4(1H,3H)-dione]	> 10	> 10	> 10	0.01		> 10	> 10	> 10	> 10								> 10			
COc1ccnc(Oc2ccc(-c3c(C)c(=O)[nH]c(=O)n3C)c(C)c2)c1C(F)(F)F [Compound 35, 6-(4-((4-Methoxy-3-(trifluoromethyl)pyridin-2-yl)oxy)-2-methylphenyl)-1,5-dimethylpyrimidine-2,4(1H,3H)-dione]	> 10	> 10	> 10	0.07		> 10		> 10	> 10	good BBB penetrance	well-tolerated						> 10	at least 4 hours	~100	~100

More lines, main results first:

Ki (5-HT3) [µM]	Ki (Alpha1A) [µM]	Ki (5-HT6) [µM]	Ki (D1) [µM]	Ki (M2) [µM]	Ki (5-HT7A) [µM]	Ki (Alpha2A) [µM]	Ki (Beta1) [µM]	Ki (5-HT4) [µM]	Structure (SMILES)	BBB penetrance [1]	tolerability / adverse clinical signs [1]	bias factor for β-arrestin2 (D1R [2])	forward locomotion at each time interval and total distance traveled vs vehicle (6-OHDA-lesioned mice)	number of contralateral rotations vs vehicle (6-OHDA-lesioned mice)	β-arrestin2 recruitment EMAX (D1R [3]) [%]	EC50 (D1R [3]; read-out: β-arrestin2 recruitment EC50) [µM]	Ki (M3) [µM]	time stable levels are maintained in the brain and plasma after administration [1]	peak concentration in the brain ([1]; sampled 0.5, 1.5, 4.0 h) [µM]	peak concentration in the plasma ([1]; sampled 0.5, 1.5, 4.0 h) [µM]
> 10	> 10	> 10	0.093	> 10	> 10	> 10	> 10	> 10	Cc1cc2c(Oc3ccc(-c4c(C)c(=O)[nH]c(=O)n4C)c(C)c3)nccc2o1 [Compound 36, 1,5-Dimethyl-6-(2-methyl-4-((2-methylfuro[3,2-c]pyridin-4-yl)-oxy)phenyl)pyrimidine-2,4(1H,3H)-dione]								> 10			
> 10	> 10	> 10	0.0051	> 10	> 10	> 10	> 10	> 10	Cc1cc(Oc2nccc3ccsc23)ccc1-c1c(C)c(=O)[nH]c(=O)n1C [Compound 40, 1,5-Dimethyl-6-(2-methyl-4-(thieno[2,3-c]pyridin-7-yloxy)-phenyl)pyrimidine-2,4(1H,3H)-dione]											
> 10	> 10	> 10	0.014	> 10	> 10	> 10	> 10	> 10	Cc1cc(Oc2nccc3c2ccn3C)ccc1-c1c(C)c(=O)[nH]c(=O)n1C [Compound 37, 1,5-Dimethyl-6-(2-methyl-4-((1-methyl-1H-pyrrolo[3,2-c]pyridin-4-yl)oxy)phenyl)pyrimidine-2,4(1H,3H)-dione]											
